Reference: PMC13252604, “First Generation Proteolysis Targeting Chimeras (PROTACs) for the Treatment of Progeria” (Advanced Science, 2026)

Assay: In vivo pharmacokinetic analysis
Details: mouse, i.p. 25 mg/kg
Description: FIGURE 8 (A) In vivo pharmacokinetic (PK) analysis of compound 2 (mean±sem, n = 2 per time point). (B) Body weight throughout the 7‐week treatment. Mice of the indicated genotypes (mean±sem, n = 2) were treated with compound 2 or vehicle, starting at 6 weeks of age. (C) Progerin and H3K9Me3 levels in lung and liver, respectively, of mice treated for 7 weeks. Representative cropped immunoblots are shown. MW, molecular weight (in kDa) markers. […] TEXT PRINTED IN THE PICTURE: (A) no label printed: VD (L·Kg^-1): 11± 5 (Dose (D) (mg·Kg^-1): 25); Ke (h^-1): 0.9± 0.1 (Dose (D) (mg·Kg^-1): 25); t1/2 (h): […] (Dose (D) (mg·Kg^-1): 25); AUC (mg·h·L^-1): 3±1 (Dose (D) (mg·Kg^-1): 25); CL (L·Kg^-1·h^-1): 10±5 (Dose (D) (mg·Kg^-1): 25) DOUBTS OF THE COPYIST ABOUT THIS PICTURE: Panel A: the picture prints no substance label beside the pharmacokinetic table, so the label is left empty. "Cpd 2" is printed only in panel B. […]
All scientific procedures with animals were conformed to EU Directive 2010/63 EU and Recommendation 2007/526/EC, enforced in Spanish law under Real Decreto 53/2013.
Animal protocols were approved by the Committee of Animal Experimentation of Universidad Complutense de Madrid and the Animal Protection Area of the Comunidad Autónoma de Madrid (PROEX 114.4/24). Animal studies were carried out in LmnaG609G/G609G knock-in mice ubiquitously expressing progerin[19] and control Lmna+/+ littermates, obtained by breeding LmnaG609G/+ mice kindly donated by Prof. V. Andrés (CNIC, Spain). Mice were maintained in the animal facility of the Universidad Complutense de Madrid under specific pathogen free conditions.
For pharmacokinetic studies, compound 2 was administered intraperitoneally and blood was collected at the selected time points post-dose (n=2-3 per time point) by cardiac puncture. Blood was allowed to clot at room temperature for 30 min and centrifuged at 4 °C for 10 min at 10000g. The supernatant was transferred to a clean polypropylene tube and stored at -80 °C until analysis. For analysis, a volume of cold acetonitrile was added to the serum. The sample was incubated in an ice bath for 10 min and centrifuged at 4 °C for 10 min at 18000g. The resulting organic layer was filtered through a polytetrafluoroethylene filter (0.2 µm, 13 mm diameter, Agilent Technologies) and 30 µL of the sample analyzed by liquid chromatography coupled to mass spectrometry multiple reaction monitoring at the UCM’s Mass Spectrometry CAI. Separation was performed using a Phenomenex Gemini 5 µm C18 110Å 150x2 mm column (run time 9 min; flow 0.7 mL/min; gradient: 0 min 5% B; 4-7 min 100% B; 7.5 min 5% B; Phase A: water with formic acid 0.1%; Phase B: acetonitrile). […]
UHPLC with an oven temperature of 31.5 °C. The mass spectrometer ion optics were set in the multiple reaction monitoring mode and the transition selected for quantification […]
For in vivo treatment, compound 2 was administrated at a concentration of 25 mg/kg diluted in sterile corn oil (Sigma-Aldrich) intraperitoneally three times per week starting at the age of 6 weeks. The same quantity of corn oil was injected to control […]
After 7 weeks of treatment, mice were euthanized by CO2 inhalation. […] For immunoblot analysis, a portion of the corresponding tissue was homogenized, and the protein concentration was determined. Samples containing equivalent amounts of total protein were then subjected to polyacrylamide gel electrophoresis and analyzed as […]

CC1(C)Oc2cc3oc(=O)ccc3cc2C[C@@H]1OC(=O)CCCCCNc1cccc2c1C(=O)N(C1CCC(=O)NC1=O)C2=O (some centres unmarked) [compound 2]
concentration at 1 h (ip, serum, 1 h, read-out: levels of the compound 1 h after administration): ~1500 ng/mL
signs of toxicity: no evident signs of toxicity
half-life (serum, ip, 25 mg/kg, read-out: t1/2 (half‐life) (converted)): ~120 min
AUC (serum, ip): 3000 ± 1000 ng·h/mL
k el (serum, ip, read-out: Ke (converted)): 0.00025 s⁻¹
